We go through one compound from PMC10685318, “Trans-cyclosulfamidate mannose-configured cyclitol allows isoform-dependent inhibition of GH47 α-D-mannosidases through a bump–hole strategy” (Chemical Science, 2023).

Each structure is given as a SMILES string. A value given as a limit tells only on which side of the number the result lay.

This test concerns the target T1, MAN2B2 (Homo sapiens, UniProt Q9Y2E5).
T1 construct: expressed in transfected cells
T1 sequence (Q9Y2E5 24-1009): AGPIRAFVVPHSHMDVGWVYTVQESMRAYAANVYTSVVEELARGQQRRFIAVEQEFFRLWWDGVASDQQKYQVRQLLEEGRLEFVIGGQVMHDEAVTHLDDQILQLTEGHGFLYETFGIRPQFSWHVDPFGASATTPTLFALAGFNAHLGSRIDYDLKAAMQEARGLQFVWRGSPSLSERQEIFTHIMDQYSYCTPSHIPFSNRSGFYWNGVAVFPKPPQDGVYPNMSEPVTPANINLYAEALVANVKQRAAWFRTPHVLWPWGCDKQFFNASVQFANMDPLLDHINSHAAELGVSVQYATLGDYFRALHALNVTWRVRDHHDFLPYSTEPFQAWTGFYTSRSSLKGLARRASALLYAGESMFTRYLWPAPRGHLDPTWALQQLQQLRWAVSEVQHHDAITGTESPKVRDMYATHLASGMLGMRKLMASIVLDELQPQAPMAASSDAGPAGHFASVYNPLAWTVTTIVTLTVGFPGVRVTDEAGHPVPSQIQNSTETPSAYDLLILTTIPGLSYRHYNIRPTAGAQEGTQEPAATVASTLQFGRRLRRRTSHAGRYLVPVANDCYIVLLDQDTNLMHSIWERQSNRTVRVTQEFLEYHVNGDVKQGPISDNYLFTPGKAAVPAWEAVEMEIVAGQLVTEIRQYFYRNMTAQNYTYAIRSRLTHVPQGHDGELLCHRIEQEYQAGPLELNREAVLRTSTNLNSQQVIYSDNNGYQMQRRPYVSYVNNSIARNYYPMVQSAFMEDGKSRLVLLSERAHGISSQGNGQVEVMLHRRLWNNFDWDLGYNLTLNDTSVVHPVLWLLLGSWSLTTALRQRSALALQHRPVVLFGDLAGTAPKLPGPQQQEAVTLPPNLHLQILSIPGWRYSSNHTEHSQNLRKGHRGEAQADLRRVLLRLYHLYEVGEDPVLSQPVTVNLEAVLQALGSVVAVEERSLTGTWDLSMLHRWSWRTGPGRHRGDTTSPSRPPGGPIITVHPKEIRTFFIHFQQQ
The test can be described thus: 4-MU-α-man activity assay in overexpressed cell lysates. Format: biochemical. The text has this:
Finally, selectivity versus a panel of related exo-mannosidases was investigated. We first tested inhibition against all five human GH38 retaining α-mannosidases in overexpressed cell lysates using 4-methylumbelliferyl-α-mannoside (4-MU-α-man): Golgi mannosidase II and IIx (MAN2A1 and MAN2A2), cytosolic MAN2C1 and lysosomal MAN2B1 and MAN2B2. This α-mannosidase family follows a different conformational itinerary than GH47: ^0S2 → B2,5 → ^1S5.[35] […] Of note, the presence of cobalt has been associated with conformational changes in the active site of some GH38 α-mannosidases, which might affect the binding interaction with inhibitors.[36] Nevertheless, additional research is required to explore which specific metal ion is present in the MAN2C1 active site in its in vivo state.
Trans-Cyclosulfamidate Cyclitols Males et al.
2.3 GH38 α-mannosidases and GH2 β-mannosidase inhibition studies
All chemicals were of analytical grade and purchased from Sigma-Aldrich unless stated otherwise.
Optimal stability of cell homogenates and enzyme working stocks was ensured by preparation and temporary storage on ice. Cell homogenates were prepared and used on the same day. Protein concentrations were quantified using the Pierce BCA Protein Assay Kit (ThermoFisher). Protein samples were measured in clear flat-bottom polystyrene 96 well microplates (Greiner Bio-One) using a EMax Plus Microplate Reader (Molecular Devices). Activity measurements of human GH38 α-mannosidases and bacterial β-mannosidase BtMan2A were performed in black flat-bottom polystyrene 96 wells microplates (Greiner Bio-One) and total fluorescence was measured using a Perkin Elmer LS-55 fluorescence spectrometer at wavelengths λex = 366 and λem = 445 nm, with the signal optimized for medium gain readings. The fluorescence values of each enzyme sample were corrected for the background signal of a blank sample containing no enzyme. In the case of IC50 determinations, values were normalized against a control sample containing enzyme without added inhibitor. For a single experiment, three separate curves were fitted from a technical triplicate by setting the inhibitor concentration in µM against the normalized response using GraphPad Prism 8.4.2 software. The Prism functions ‘[inhibitor] versus normalized response’ and ‘[inhibitor] versus normalized response -- variable slope’ were compared for each curve using the Akaike’s Information Criterion method to select the preferred model. Reported IC50 values are mean ± standard deviation from a biological […]
General cell culture protocol
HEK293T cells were grown to confluency at 37 °C under a 5% CO2 atmosphere in Dulbecco’s Modified Eagle’s Medium (DMEM) with a high glucose concentration (Capricorn Scientific, DMEM-HPXA) that was supplemented with 10% fetal calf serum, 0.1% (w/v) penicillin/streptomycin and 1% (v/v) Glutamax. Cells were passaged twice a week to new round polystyrene (PS) tissue culture dishes (Sarstedt) by detachment off the former culture plates by careful pipetting. To prepare cell pellets for activity measurements, plates were grown to confluency and harvested in phosphate buffered saline (PBS). After centrifugation at 1500 rpm for 5 min, the remaining PBS was aspirated and the cells were resuspended in fresh PBS. The concentration of the resulting suspension was then counted using a TC20 automated cell counter (BioRad). Aliquots were centrifuged at 2000 rpm for 5 min and the resulting cell pellets were stored at -80 °C until further use.
4-MU activity assay protocol for human GH38 α-mannosidases
HEK293T cells stably overexpressing human GH38 α-mannosidases MAN2A1, MAN2A2, MAN2B1, MAN2B2 and MAN2C1 were prepared as previously described[11] and were kindly donated by Dr. C. L.
Kuo. Homogenates were prepared by sonicating cell pellets (Sonics VibraCell, 5x1 s with 30 s interval at 20% amplitude) in 150 mM McIlvain buffer of pH 5.5 (MAN2A1, MAN2A2), pH 4.5 (MAN2B1, MAN2B2) or pH 6.7 (MAN2C1) containing either 2 mM ZnCl2 (MAN2A1, MAN2A2, MAN2B1, MAN2B2) […]

In the case of `O=S1(=O)N[C@@H]2[C@@H](O)[C@@H](O)[C@H](O)[C@@H](CO)[C@H]2O1` [compound 6, 1,6-trans-manno-cyclosulfamidate], the “activity when the buffer was enriched with CoCl2” value (CoCl2) was “no activity”. Where the note is “Zn2+”, this compound showed an IC50 above 1 mM.
